Source: ChEMBL document CHEMBL5154646, “Structure-guided optimization of 1H-imidazole-2-carboxylic acid derivatives affording potent VIM-Type metallo-β-lactamase inhibitors” (Eur J Med Chem, 2022)
Calls of active or inactive are those of the source. The calls are words filed in the database; no cut-off is given here.

What was measured:
Escherichia coli [1] = test: Potentiation of meropenem-induced antibacterial activity against Escherichia coli C1541 expressing VIM-2 assessed as fold reduction in meropenem MIC at 10 ug/ml incubated for 18 to 20 hrs by CLSI based broth microtiter dilution method; type: functional; conditions: dose 10 µg/ml; time 18-20 hrs
[2] = Toxicity in ICR mouse assessed as change in behavior at 500 to 2000 mg/kg, ip administered for 14 days; type: organism-based; conditions: in vivo, 336 h, dose 500-2000 mg/kg, time 14 day
Escherichia coli [3] = test: Bactericidal activity against Escherichia coli C1580 expressing VIM-2 assessed as induction of bacterial ultrastructural changes by measuring cellular debris at 20 ug/ml incubated for 1 hr in presence of meropenem by transmission electron microscopy; type: functional, organism-based; conditions: dose 20.0 µg/ml
[4] = Inhibition of bacterial VIM-2 (27 to 266 residues) expressed in Escherichia coli Transetta (DE3) using FC-5 as substrate preincubated with enzyme for 10 mins followed by substrate addition in presence of 100 uM Zn2+ by fluorescence based analysis; parameters: species or system Bacteria
[5] = Inhibition of bacterial IMP-1 (1 to 246 residues) expressed in Escherichia coli Transetta (DE3) using FC-5 as substrate preincubated with enzyme for 10 mins followed by substrate addition by fluorescence based analysis; parameters: species or system Bacteria
Escherichia coli [6] = test: Potentiation of meropenem-induced antibacterial activity against Escherichia coli C1542 expressing VIM-2 assessed as meropenem MIC at 10 ug/ml incubated for 18 to 20 hrs by CLSI based broth microtiter dilution method (reference value: 16 ug/ml); type: functional; conditions: dose 10 µg/ml, time 18-20 hrs
Escherichia coli [7] = test: Potentiation of meropenem-induced antibacterial activity against Escherichia coli C1541 expressing IMP-1 assessed as fold reduction in meropenem MIC at 10 ug/ml incubated for 18 to 20 hrs by CLSI based broth microtiter dilution method; type: functional; conditions: dose 10 µg/ml; time 18-20 hrs
[8] = Toxicity in ICR mouse assessed as effect on histological architecture of spleen at 500 to 2000 mg/kg, ip administered for 14 days by hematoxylin and eosin staining based histopathological assay; type: organism-based; conditions: in vivo, 336 h, dose 500-2000 mg/kg, time 14 day
Escherichia coli [9] = test: Bactericidal activity against Escherichia coli C1580 expressing VIM-2 assessed as induction of bacterial ultrastructural changes by measuring breakdown of cell wall with leakage of cellular contents at 20 ug/ml incubated for 1 hr in presence of meropenem by transmission electron microscopy; type: functional, organism-based; conditions: dose 20.0 µg/ml
[10] = Inhibition of bacterial NDM-1 (1 to 270 residues) expressed in Escherichia coli Transetta (DE3) using FC-5 as substrate preincubated with enzyme for 10 mins followed by substrate addition by fluorescence based analysis; parameters: species or system Bacteria
[11] = Toxicity in ICR mouse assessed as effect on histological architecture of kidney at 500 to 2000 mg/kg, ip administered for 14 days by hematoxylin and eosin staining based histopathological assay; type: organism-based; conditions: in vivo, 336 h, dose 500-2000 mg/kg, time 14 day
[12] = Toxicity in ICR mouse assessed as change in body weight at 500 to 2000 mg/kg, ip administered for 14 days; type: organism-based; conditions: in vivo, 336 h, dose 500-2000 mg/kg, time 14 day
[13] = Toxicity in ICR mouse assessed as effect on histological architecture of lungs at 500 to 2000 mg/kg, ip administered for 14 days by hematoxylin and eosin staining based histopathological assay; type: organism-based; conditions: in vivo, 336 h, dose 500-2000 mg/kg, time 14 day
Pseudomonas aeruginosa [14] = test: Synergistic antibacterial activity against Pseudomonas aeruginosa W35 expressing VIM-2 assessed as fractional inhibitory concentration index incubated for 18 to 20 hrs in presence of meropenem by checkerboard microdilution assay; type: functional; conditions: time 18-20 hrs
Pseudomonas aeruginosa [15] = test: Potentiation of meropenem-induced antibacterial activity against Pseudomonas aeruginosa 5621 expressing VIM-2 assessed as fold reduction in meropenem MIC at 100 ug/ml incubated for 18 to 20 hrs by CLSI based broth microtiter dilution method; type: functional; conditions: dose 100 µg/ml; time 18-20 hrs
Escherichia coli [16] = test: Potentiation of meropenem-induced antibacterial activity against Escherichia coli C1542 expressing VIM-2 assessed as fold reduction in meropenem MIC at 10 ug/ml incubated for 18 to 20 hrs by CLSI based broth microtiter dilution method; type: functional; conditions: dose 10 µg/ml; time 18-20 hrs
Pseudomonas aeruginosa [17] = test: Potentiation of meropenem-induced antibacterial activity against Pseudomonas aeruginosa W35 expressing VIM-2 assessed as fold reduction meropenem MIC at 10 ug/ml incubated for 18 to 20 hrs in presence of meropenem by CLSI based broth microtiter dilution method; type: functional; conditions: dose 10 µg/ml; time 18-20 hrs
Pseudomonas aeruginosa [18] = test: Induction of morphological changes in Pseudomonas aeruginosa W35 expressing VIM-2 at 10 ug/ml incubated for 1 hr by transmission electron microscopy; type: functional, organism-based; conditions: dose 10.0 µg/ml
Escherichia coli [19] = test: Synergistic antibacterial activity against Escherichia coli C1541 expressing VIM-2 assessed as fractional inhibitory concentration index incubated for 18 to 20 hrs in presence of meropenem and 100 uM of zinc sulfate by checkerboard microdilution assay; type: functional; conditions: time 18-20 hrs
[20] = Inhibition of bacterial recombinant full length N-terminal-TEV-His6-tagged VIM-5 expressed in Escherichia coli Transetta using FC-5 as substrate preincubated with enzyme for 10 mins followed by substrate addition by fluorescence based analysis; parameters: species or system Bacteria
[21] = Toxicity in ICR mouse assessed as effect on histological architecture of liver at 500 to 2000 mg/kg, ip administered for 14 days by hematoxylin and eosin staining based histopathological assay; type: organism-based; conditions: in vivo, 336 h, dose 500-2000 mg/kg, time 14 day
[22] = Inhibition of bacterial VIM-2 (27 to 266 residues) expressed in Escherichia coli Transetta (DE3) using FC-5 as substrate preincubated with enzyme for 10 mins followed by substrate addition in presence of 1 uM Zn2+ by fluorescence based analysis; parameters: species or system Bacteria
Escherichia coli [23] = test: Potentiation of meropenem-induced antibacterial activity against Escherichia coli C1580 expressing VIM-2 assessed as fold reduction in meropenem MIC at 10 ug/ml incubated for 18 to 20 hrs by CLSI based broth microtiter dilution method; type: functional; conditions: dose 10 µg/ml; time 18-20 hrs
[24] = Solubility of the compound in water; type: physicochemical
[25] = Toxicity in ICR mouse assessed as mortality at 500 to 2000 mg/kg, ip administered for 14 days; type: organism-based; conditions: in vivo, 336 h, dose 500-2000 mg/kg, time 14 day
Escherichia coli [26] = test: Potentiation of meropenem-induced antibacterial activity against Escherichia coli C1541 expressing VIM-2 assessed as meropenem MIC at 10 ug/ml incubated for 18 to 20 hrs by CLSI based broth microtiter dilution method (reference value: 16 ug/ml); type: functional; conditions: dose 10 µg/ml, time 18-20 hrs
Pseudomonas aeruginosa [27] = test: Potentiation of meropenem-induced antibacterial activity against Pseudomonas aeruginosa W35 expressing VIM-2 assessed as meropenem MIC at 100 ug/ml incubated for 18 to 20 hrs in presence of meropenem by CLSI based broth microtiter dilution method (reference value: 64 ug/ml); type: functional; conditions: dose 100 µg/ml, time 18-20 hrs
[28] = Cmax in Sprague-Dawley rat at 100 mg/kg, ip by UPLC analysis; type: ADME, organism-based; parameters: dose 100 mg/kg, route ip; conditions: in vivo
Escherichia coli [29] = test: Potentiation of meropenem-induced antibacterial activity against Escherichia coli C1580 expressing VIM-2 assessed as meropenem MIC at 10 ug/ml incubated for 18 to 20 hrs by CLSI based broth microtiter dilution method (reference value: 32 ug/ml); type: functional; conditions: dose 10 µg/ml, time 18-20 hrs
Escherichia coli [30] = test: Synergistic antibacterial activity against Escherichia coli C1541 expressing VIM-2 assessed as fractional inhibitory concentration index incubated for 18 to 20 hrs in presence of meropenem by checkerboard microdilution assay; type: functional; conditions: time 18-20 hrs

**Q.** For `O=C(O)c1nccn1Cc1ccncc1`, which “fold change (FC)” value (Escherichia coli [1]) is on record?
**A.** >64

**Q.** And the Activity [2]?
**A.** Non-Toxic

**Q.** And the Activity (Escherichia coli [3])?
**A.** Active

**Q.** And the IC50 [4]?
**A.** 1.75 µM

**Q.** What about the IC50 [5] of the same compound?
**A.** > 300 µM

**Q.** What about the MIC (Escherichia coli [6]) of the same compound?
**A.** < 0.25 µg/mL

**Q.** What about the “fold change (FC)” value (Escherichia coli [7]) of the same compound?
**A.** 1

**Q.** What about the Activity [8] of the same compound?
**A.** Non-Toxic

**Q.** And the Activity (Escherichia coli [9])?
**A.** Active

**Q.** And the IC50 [10]?
**A.** > 300 µM

**Q.** What about the Activity [11] of the same compound?
**A.** Non-Toxic

**Q.** What about the Activity [12] of the same compound?
**A.** Non-Toxic

**Q.** And the Activity [13]?
**A.** Non-Toxic

**Q.** And the “fractional inhibitory concentration index (FICI)” value (Pseudomonas aeruginosa [14])?
**A.** 0.25

**Q.** And the “fold change (FC)” value (Pseudomonas aeruginosa [15])?
**A.** 2

**Q.** And the “fold change (FC)” value (Escherichia coli [16])?
**A.** >64

**Q.** And the “fold change (FC)” value (Pseudomonas aeruginosa [17])?
**A.** 4

**Q.** And the Activity (Pseudomonas aeruginosa [18])?
**A.** Active

**Q.** What about the “fractional inhibitory concentration index (FICI)” value (Escherichia coli [19]) of the same compound?
**A.** 0.05

**Q.** What about the IC50 [20] of the same compound?
**A.** 5.78 µM

**Q.** What about the Activity [21] of the same compound?
**A.** Non-Toxic

**Q.** What about the IC50 [22] of the same compound?
**A.** 0.22 µM

**Q.** What about the “fold change (FC)” value (Escherichia coli [23]) of the same compound?
**A.** 32

**Q.** And the solubility [24]?
**A.** > 20 mg/mL

**Q.** And the Activity [25]?
**A.** Non-Toxic

**Q.** What about the MIC (Escherichia coli [26]) of the same compound?
**A.** < 0.25 µg/mL

**Q.** What about the MIC (Pseudomonas aeruginosa [27]) of the same compound?
**A.** 4 µg/mL

**Q.** What about the Cmax [28] of the same compound?
**A.** 143 µg/mL

**Q.** And the MIC (Escherichia coli [29])?
**A.** 1 µg/mL

**Q.** And the “fractional inhibitory concentration index (FICI)” value (Escherichia coli [30])?
**A.** 0.05
